Experimental data as given in patent US10335374B2, “Tablet composition for anti-tuberculosis antibiotics” (priority 2014, dated 2019).
≈ marks a conversion by molar mass, not a printed value.

Tests used:
Assay in all cases: microbe, parasite or virus in culture
Assay type in all cases: cell-based, M. tuberculosis
[1] = tested on: INH-R2 (isoniazid resistant)
[2] = tested on: INH-R1 (isoniazid resistant)
[3] = tested on: rifampin-resistant strain; settings: Mycobacterium tuberculosis
[4] = tested on: ofloxacin-resistant strain; settings: Mycobacterium tuberculosis
[5] = tested on: isoniazid-resistant strain; settings: Mycobacterium tuberculosis
[6] = tested on: FQ-R1 (fluoroquinolone resistant); settings: Mycobacterium tuberculosis
[7] = tested on: RIF-R1 (rifampicin resistant); settings: Mycobacterium tuberculosis
[8] = tested on: RIF-R2 (rifampicin resistant); settings: Mycobacterium tuberculosis

SMILES | MIC ([1]; Mycobacterium tuberculosis) | MIC ([1]; Resistant Isolate INH-R2, isoniazid-sucrose series) | MIC ([2]; Mycobacterium tuberculosis) | MIC ([2]; Resistant Isolate INH-R1, isoniazid-sucrose series) | MIC [3] | MIC [4] | MIC [5] | MIC [6] | MIC [7] | MIC [8]
NNC(=O)c1ccncc1 [Isoniazid (INH), isoniazid] | > 200 µM | >200 µM | > 200 µM | >200 µM |  |  |  |  |  | 
NCC[C@H](O)C(=O)N[C@@H]1C[C@H](N)[C@@H](O[C@H]2O[C@H](CN)[C@@H](O)[C@H](O)[C@H]2O)[C@H](O)[C@H]1O[C@H]1O[C@H](CO)[C@@H](O)[C@H](N)[C@H]1O [amikacin] |  |  |  |  | 0.256 µM (≈ 0.15 µg/mL) | 0.256 µM (≈ 0.15 µg/mL) | 2.05 µM (≈ 1.2 µg/mL) |  |  | 
CO[C@H]1/C=C/O[C@@]2(C)Oc3c(C)c(O)c4c(O)c(c(/C=N/N5CCN(C)CC5)c(O)c4c3C2=O)NC(=O)/C(C)=C\C=C\[C@H](C)[C@H](O)[C@@H](C)[C@@H](O)[C@@H](C)[C@H](OC(C)=O)[C@@H]1C [rifampicin] | 0.0075 µM (≈ 0.00617 µg/mL) |  | 0.02 µM (≈ 0.0165 µg/mL) |  |  |  |  | 0.017 µM (≈ 0.014 µg/mL) | 12.4 µM (≈ 10.2 µg/mL) | > 200 µM
